Earlier results as cited in patent publication US20080064913A1 (priority 2005, published 2008).

Tested on: rat
Details: in vivo

NN [hydrazine]
LD50 (rat): 60 mg/kg
